Assay results published in patent publication US20200276136A1, “METHOD OF TREATING SELECTED PATIENT POPULATION EXPERIENCING DRAVET SYNDROME” (ZOGENIX INTERNATIONAL LIMITED, priority 2017, published 2020).

How the values were obtained:
[1] = system: patients with Dravet syndrome; conditions: cited from earlier work
[2] = system: patients with Dravet syndrome; assay: Study 1 (ZX008-1501/1502), Phase 3 double-blind placebo-controlled: efficacy on seizures; type: in vivo, human; conditions: 0.8 mg/kg/day; end of the T+M Period
Experimental: The first 119 subjects to be randomized in both identical studies combined were analyzed and reported as Study 1 (FIG. 1), covered by a Statistical Analysis Plan (SAP).
Primary and key secondary endpoints in the Study 1 SAP were pre-determined. All patients were treated twice per day over a period of 14 weeks using an oral syringe to administer the formulation. The treatment period included a two-week titration period and a 12-week maintenance period.
Patients were titrated to their target dose over two weeks, and then remained at that fixed dose for 12 weeks. The mean baseline convulsive seizure frequency across the study groups was approximately 40 seizures per month. 110 (92%) patients completed the study (85% 0.8 mg/kg/day; 100% 0.2 mg/kg/day; 93% placebo).
The proportion of patients who achieved ≥75% seizure reductions, a secondary (non-key) efficacy measure, is also presented.
The mean number of convulsive seizure free days, defined as a day for which diary data are available and no convulsive seizures have been reported, was determined for each treatment group during the Baseline and T+M Periods. […]

## CCNC(C)Cc1cccc(C(F)(F)F)c1 (racemic) [Fenfluramine, (RS)—N-ethyl-1-[3-(trifluoromethyl)phenyl]propan-2-amine]
[1]; Fenfluramine and Valproate, average 0.34 mg/kg/day for between 1 and 22 years
  >50% Reduction in Seizures (responders): 75%
[1]; long-term treatment
  heart valve defects monitored by echocardiography: No clinically relevant defects were identified
  types of seizures reduced: effectively reduced the incidence of all types of seizures
[2]
  reduction from Baseline in non-convulsive seizure frequency (all types): 59.1%
